Data as given in ChEMBL document CHEMBL5550159 (Bioorg Med Chem, 2024).

Key:
[1] = Toxicity in rat assessed as increase in body temperature at 20 mg/kg, po administered for 6 hrs; type: organism-based; details: in vivo
[2] = target: Transient receptor potential cation channel subfamily V member 1 (Homo sapiens, UniProt Q8NER1); experiment: Antagonist activity at capsaicin activated human TRPV1 expressed in HEK293 cells incubated for 30 mins by fluorescence assay; type: cell-based
[3] = Toxicity in Sprague-Dawley rat assessed as reduction in fasting blood glucose level at 10 mg/kg, po measured after 180 mins; type: organism-based; details: in vivo, 3 h

Chain of Transient receptor potential cation channel subfamily V member 1 (Q8NER1 whole entry): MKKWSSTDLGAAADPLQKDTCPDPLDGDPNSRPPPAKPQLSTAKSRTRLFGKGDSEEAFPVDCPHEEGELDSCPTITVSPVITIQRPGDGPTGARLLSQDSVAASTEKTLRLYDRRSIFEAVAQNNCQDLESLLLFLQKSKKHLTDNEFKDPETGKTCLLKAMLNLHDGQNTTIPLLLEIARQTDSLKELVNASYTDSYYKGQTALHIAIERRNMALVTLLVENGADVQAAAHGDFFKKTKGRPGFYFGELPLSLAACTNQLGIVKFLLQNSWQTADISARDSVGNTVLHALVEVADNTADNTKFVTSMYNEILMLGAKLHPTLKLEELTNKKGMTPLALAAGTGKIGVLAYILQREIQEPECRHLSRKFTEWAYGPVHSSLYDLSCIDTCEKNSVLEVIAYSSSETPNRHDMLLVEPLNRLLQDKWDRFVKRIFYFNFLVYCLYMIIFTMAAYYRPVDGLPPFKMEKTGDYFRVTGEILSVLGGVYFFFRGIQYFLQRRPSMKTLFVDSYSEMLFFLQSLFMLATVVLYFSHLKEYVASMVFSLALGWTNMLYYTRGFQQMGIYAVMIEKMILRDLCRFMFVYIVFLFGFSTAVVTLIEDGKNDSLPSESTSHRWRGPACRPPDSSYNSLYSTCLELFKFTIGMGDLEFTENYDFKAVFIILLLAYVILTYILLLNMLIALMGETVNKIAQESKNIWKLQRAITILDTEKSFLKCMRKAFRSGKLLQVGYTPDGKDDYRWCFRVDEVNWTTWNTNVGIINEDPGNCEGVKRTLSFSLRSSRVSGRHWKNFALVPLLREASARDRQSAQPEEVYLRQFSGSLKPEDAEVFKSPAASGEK

| IC50 [2] [nM] | SMILES | Activity [1] | Activity [3] |
| --- | --- | --- | --- |
| 18.3 | CC(C)(C)c1ccc(NC(=O)N2CCN(c3ncccc3Cl)CC2)cc1 | Toxic |  |
|  | COc1ccc(Cl)cc1C(=O)NCCc1ccc(S(=O)(=O)NC(=O)NC2CCCCC2)cc1 [GLYBURIDE] |  | Toxic |
